Reference: patent EP3354264A1, “PROPHYLAXIS AND TREATMENT OF NEISSERIA GONORRHOEAE EYE INFECTION” (Kingston University Higher Education Corporation, priority 2017, dated 2018)
Values after ≈ are worked out from the molar mass of the structure shown. Values joined by “and” are separate entries in the source; they are usually repeats but may differ in a detail not shown here. Equal values may be shown once. Read-outs that look alike come from different tables or passages of the source.

What was measured:
[1] = test system: Neisseria gonorrhoeae strain NCCP11945; assay: Measurement of bactericidal action (log reduction); assay type: cell-based; details: for log reduction at 1000 µM: Neisseria gonorrhoeae
Experimental: (§1) The well characterised N. gonorrhoeae strain NCCP11945 (Chung GT et al. (2008) Complete genome sequence of Neisseria gonorrhoeae NCCP11945. Journal of Bacteriology 190: 6035-6036) was used in the screening stage of this experiment. Eight isolates that were obtained from Public Health England from various European locations were used in the log reduction assays. All isolates were first cultured for 24 hours prior to testing by plating on GC solid medium (Oxoid Limited, Hampshire, UK) with Kellogg supplements and incubating at 37 °C, 5% CO2 (Kellogg DS, Jr., et al., (1963), J Bacteriol 85: 1274-1279).
(§2) A full list of all the organic acids tested in this study is in Table 1. The tested compounds include saturated and unsaturated fatty acids, monoglycerides, dicarboxylic acids, and fatty acid sodium salts. All compounds investigated were resuspended at a concentration of 100 mM in ethanol unless stated. All chemicals were obtained from Sigma-Aldrich (Poole, Dorset, UK).
(§3) Log reductions were done using the same method as in Bergsson et al., (1999), Antimicrob Agents Chemother 43: 2790-2792. Briefly, cells were suspended in GC broth (18 g/L GC Base (Oxiod, Limited) with added defined supplements) to an optical density of 0.3 at 520 nm which is approximately equivalent to 107 - 108 cells per millilitre (Macfarlane DE et al. (1980) Improved media for the culture of Neisseria gonorrhoeae. J Med Microbiol 13: 597-607). Five hundred microliters of the suspension was then added to 5 µl of the 100 mM stocks to give a final concentration of 1 mM. A negative control was also done to calculate the reduction in bacterial titre by adding 500 µl to 5 µl ethanol. The tubes were then mixed at room temperature for two minutes and immediately diluted in a 10 fold dilution series down to 10-4. The dilutions were plated by spreading 10 µl on a quarter of a plate and 100 µl of the neat solution was also plated. Plates were incubated at 37 °C for 48 hours. All samples were plated in duplicate. A reduction in viable cell count by more than 4 log10 was deemed to be bactericidal and was selected for further investigation. Bactericidal compounds were then tested at concentrations of 0.75, 0.5, and 0.25 mM (0.125 mM was also used in some potent compounds) to find the minimum bactericidal concentration. Additional testing at lower concentrations was also done on the eight clinical isolates of European origin.

[2] = test system: Neisseria gonorrhoeae strain NCCP11945; assay: Growth inhibition screen of organic acids; assay type: cell-based; details: strain NCCP11945, in vitro, 1 mM
Experimental: as §1, §2
Other organic acids were also active at this concentration, as noted in Table 1.

[3] = test system: Neisseria gonorrhoeae strain NCCP11945; assay: Log reduction in artificial tear fluid; assay type: cell-based; details: two minute exposure
Experimental: Artificial tear fluid was made as in Mirejovsky et al., Optometry and Vision Science, (1991), 68: 858-864. […] Neisseria gonorrhoeae strain NCCP11945 was used in these experiments. As the previous log reductions, […] were suspended in GC broth. The cell suspension was centrifuged to remove the culture medium and the bacteria resuspended in the tear fluid. This was then added to the concentrated organic acid candidates. The cells were then counted again after two minute exposure to estimate any reduction due to the exposure to the fatty acid.
In a first experiment, the artificial tear fluid formulation includes calcium chloride to mimic the calcium in natural tears. As shown by the results in Figure 8, the anti-gonococcal properties of myristoleic acid (C14:1cΔ9), palmitoleic acid (C16:1cΔ9), linolenic acid (C18:3cΔ9,12,15), and monocaprin(C10) are retained in the artificial tear fluid formulation containing calcium chloride.
In a second experiment, calcium chloride was omitted from the artificial tear fluid formulation. The results in Figure 9 indicate that the anti-gonococcal properties of lauric acid (C12:0), tridecanoic acid (C13:0), and sodium dodecanoate were retained in the artificial tear fluid formulation without.

[4] = test system: panel of nine N. gonorrhoeae isolates (strain NCCP11945 and eight isolates from Public Health England); assay: Minimum bactericidal concentration by log reduction, panel of isolates; assay type: cell-based; details: Neisseria gonorrhoeae, 2 min, read-out: Minimum bactericidal concentration
Experimental: as §1, §3
As shown by the results in Table 3 which presents data on the log reductions of bacterial cell counts, against a panel of nine N. gonorrhoeae isolates (strain NCCP11945 and eight isolates from Public Health England), myristoleic acid (C14:1cΔ9), palmitoleic acid (C16:1cΔ9), linolenic acid (C18:3cΔ9,12,15), and monocaprin (C10) have a minimal bactericidal concentration, defined as the lowest concentration tested to give an average 4 log10 reduction in bacterial count after a two minute exposure, of 0.5 mM. Against a panel of nine N. gonorrhoeae isolates, lauric acid (C12:0), tridecanoic acid (C13:0), and sodium dodecanoate have a minimal bactericidal concentration of 0.75 mM.

RBCs = assay: in vitro; assay type: cell-based, bovine
Experimental: (§4) Whole bovine blood was obtained from a local slaughter house (ABP, Guildford, Surrey, UK), adding 90 ml blood to 10 ml of 110 mM tri-sodium citrate anticoagulant. RBCs were isolated the same day. The RBCs were washed by three repeats of centrifugation (1,500 x g for 10 minutes) and resuspension in PBSG. Testing was done following European Union Reference Laboratory for alternatives to animal testing (EURL-ECVAM) guidelines (Lewis RW (2010) DB-ALM Protocol No. 99: Red blood cell (RBC) Test System. EURL ECVAM). The organic acids were made up in DMSO and diluted to a DMSO concentration maximum of 10 % (v/v). Samples were shaken at room temperature for 1 hour and then centrifuged at 10,000 rpm for 2 minutes. An aliquot of 750 µl of the supernatant was taken and absorbance at […] tested.

in vitro = assay type: cell-based, bovine; details: red blood cells
Experimental: as §4

[5] = 2 min, strain NCCP11945, 1 mM, 2 minutes, read-out: Log reduction of Neisseria gonorrhoeae
[6] = NCCP11945, 2 min, read-out: Log reduction of Neisseria gonorrhoeae, strain NCCP11945, 1 mM, 2 minutes
[7] = strain NCCP11945, 1 mM, 2 minutes
[8] = artificial tear fluid containing calcium chloride, Figure 8
[9] = lowest concentration tested giving an average 4 log10 reduction after two minute exposure, nine isolates
[10] = bovine RBCs, shaken 1 hour at room temperature, read-out: H50
[11] = bovine RBCs, shaken 1 hour at room temperature, read-out: H50 (mg/L)

SMILES	Inhibits growth of Neisseria gonorrhoeae [2]	further results
CCCCCC[C@@H](O)C/C=C\CCCCCCCC(=O)O [Ricinoleic acid]	Yes	log reduction at 1000 µM [1, 5]: 3.5
CCCCCCCCCCCC(=O)[O-].[Na+] [Sodium dodecanoate]	Yes	anti-gonococcal properties in artificial tear fluid ([3]; artificial tear fluid without calcium chloride, Figure 9): retained; MBC [4]: 750 µM; RBC lysis assay prediction of irritation (RBCs): not irritating; HC50 at 1 h (in vitro; bovine): 200 µg/mL to 400 µg/mL and 900 µM to 1.8 mM; log reduction at 1000 µM [1, 6]: > 6; Log reduction of Neisseria gonorrhoeae [1, 7]: able to cause a log reduction; Inhibits growth of Neisseria gonorrhoeae ([2]; listed as sodium dodecanoate): able to inhibit growth
C/C=C/C=C/C(=O)O [Sorbic acid 6:2 tΔ2,4, Sorbic acid]	No	
CCCCCCCCCCCCCCC(=O)O [Pentadecylic acid 15:0, Pentadecylic acid]	Yes	log reduction at 1000 µM [1, 5]: 0.5
CCCCCCCCCCCC(=O)OCC(O)CO (stereo not shown) [Monolaurin C12, Monolaurin]	Yes	log reduction at 1000 µM [1, 6]: 3.4
O=C(O)CCCCCCCC(=O)O [Azelaic acid]	No	
CCCCCCCCCCC(=O)O [Undecanoic acid 11:0, Undecanoic acid]	Yes	log reduction at 1000 µM [1, 5]: 0.2
CCCCCCCCCCCCCC(=O)OC(C)C [Isopropyl myristate]	No	
O=C(O)CCC(=O)O [Succinic acid]	No	
CCCCCCCCCCCCCC(=O)O [Myristic acid 14:0, Myristic acid]	Yes	Log reduction of Neisseria gonorrhoeae [1, 7]: 1.5
CCCCCC/C=C\CCCCCCCCCC(=O)O [Cis-Vaccenic acid 18:1 cAll, Cis-Vaccenic acid]	No	
CCCCCCCCCCCCCC(=O)[O-].[Na+] [Sodium myristate]	Yes	Log reduction of Neisseria gonorrhoeae [1, 7]: 0.5
CCCCCCCCCC(=O)O [Capric acid/Decanoic acid 10:0, Decanoic acid]	No	
CCCCC/C=C\C/C=C\C/C=C\C/C=C\CCCC(=O)O [Arachidonic acid 20:4 cΔ5,8,11,14, Arachidonic acid]	Yes	
CCCCCCCC(=O)OCC(O)CO (racemic) [1-Octanoyl-rac-Glycerol C8, 1-Octanoyl-rac-Glycerol]	Yes	
CCCCCCCCCCCCCCCCCC(=O)O [Stearic acid 18:0, Stearic acid]	No	

SMILES	Inhibits growth of Neisseria gonorrhoeae [2]	further results
CCCCC/C=C\C/C=C\CCCCCCCC(=O)O [Linoleic acid 18:2 cΔ9,12, Linoleic acid]	Yes	log reduction at 1000 µM [1, 5]: 1.6
CC/C=C\C/C=C\C/C=C\CCCCCCCC(=O)O [Linolenic acid 18:3 cΔ9,12,15, α-linolenic acid]	Yes	anti-gonococcal properties in artificial tear fluid [3, 8]: retained; MBC [4, 9]: 500 µM (≈ 139 µg/mL); HC50 at 1 h (in vitro; [10]): 70 to 140 µM; HC50 at 1 h (in vitro; [11]): 20 to 40 mg/L; log reduction at 1000 µM [1, 5]: > 6; Log reduction of Neisseria gonorrhoeae [1, 7]: able to cause a log reduction; Inhibits growth of Neisseria gonorrhoeae ([2]; listed as linolenic acid): able to inhibit growth
O=C(O)CCCCCCCCC(=O)O [Sebacic acid]	No	
O=C(O)CCCCCCC(=O)O [Suberic acid]	No	
CCCCCCCCCCCCCCCC(=O)OC(C)C [Isopropyl palmitate]	No	
CCCCCCCC/C=C\CCCCCCCC(=O)O [Oleic acid 18:1 cΔ9, Oleic acid]	Yes	log reduction at 1000 µM [1, 5]: 1
O=C(O)CCCCC(=O)O [Adipic acid]	No	
CCCCCCCCCCCCCCCCC(=O)O [Heptadecylic acid 17:0, Heptadecylic acid]	No	
O=C(O)CCCCCC(=O)O [Pimelic acid]	No	
CCCCCCCCCCCCCC(=O)OCC(O)CO (stereo not shown) [Monomyristin C14, Monomyristin]	Yes	log reduction at 1000 µM [1, 6]: 0.6
CCCCCC/C=C\CCCCCCCC(=O)O [Palmitoleic acid 16:1 cΔ9, (9Z)-hexadec-9-enoic acid]	Yes	anti-gonococcal properties in artificial tear fluid [3, 8]: retained; MBC [4, 9]: 500 µM (≈ 127 µg/mL); HC50 at 1 h (in vitro; [10]): 80 to 160 µM; HC50 at 1 h (in vitro; [11]): 20 to 40 mg/L; log reduction at 1000 µM [1, 5]: > 6; Log reduction of Neisseria gonorrhoeae [1, 7]: able to cause a log reduction; Inhibits growth of Neisseria gonorrhoeae ([2]; listed as palmitoleic acid): able to inhibit growth
CCCCCCCCCCCCCCCC(=O)O [Palmitic acid 16:0, Palmitic acid]	No	
CCCCCCCC/C=C/CCCCCCCC(=O)O [Elaidic acid 18:1 tΔ9, Elaidic acid]	Yes	log reduction at 1000 µM [1, 5]: 0.5
CCCCCCCC(=O)O [Caprylic/Octanoic acid 8:0, Octanoic acid]	No	
CCCCCCCC/C=C\CCCCCCCCCCCC(=O)O [Erucic acid 22:1 cΔ13, Erucic acid]	Yes	log reduction at 1000 µM [1, 6]: 0
CCCCCC/C=C/CCCCCCCCCC(=O)O [trans-Vaccenic acid 18:1 tΔ11, trans-Vaccenic acid]	No	
